The text below walks through data of patent publication US12287338B2, “Method and compositions for predicting anti-cancer efficacy of compounds targeting apoptosis pathway” (Ascentage Pharma (Suzhou) Co., Ltd., priority 2020, dated 2025).

What all share (format): cell-based
Test [1] deals with Bcl-xL:BIM and Bcl-2:BIM complex. Kind of test: Bcl-2:BIM and Bcl-xL:BIM complex analysis by MSD advanced ELISA in RS4; 11 cells. The settings on record: 11 cell line, 24 hours, 0.025, 0.04 and 0.06 uM. The protocol: (§1) A diffuse large B cell lymphoma line, Toledo, and an acute lymphocytic leukemia line, RS4; 11, were chosen for the study. Cells were treated for 24 hours with Compound B4 or ABT-737 at indicated concentrations (0.025 uM, 0.04 uM and 0.06 uM, respectively) and harvested for complex analysis. Both Bcl-2:BIM and Bcl-xL:BIM complex were analyzed using MSD advanced ELISA methods.
On the technique in general: An ELISA detects its analyte on a solid surface through an enzyme-linked reagent.

Test [2] has the same test system. Kind of test: Bcl-2:BIM and Bcl-xL:BIM complex analysis by MSD advanced ELISA in Toledo cells. The settings on record: Toledo cell line, 24 hours, 0.025, 0.04 and 0.06 uM. The protocol:
as §1

For test [3], the target named is T1, Bcl-xL:BIM and Bcl-2:BIM complex (Homo sapiens, UniProt Q07817).
T1 construct: A diffuse large B cell lymphoma line, Toledo, and an acute lymphocytic leukemia line, RS4; endogenous in cells; host or cells: Toledo
The description is as above. The settings on record: Toledo and RS4; 11 cell lines (FIGS. 4A, 4B), 24 hours. The protocol:
as §1

T1 sequence (Q07817 whole entry, one chain of several): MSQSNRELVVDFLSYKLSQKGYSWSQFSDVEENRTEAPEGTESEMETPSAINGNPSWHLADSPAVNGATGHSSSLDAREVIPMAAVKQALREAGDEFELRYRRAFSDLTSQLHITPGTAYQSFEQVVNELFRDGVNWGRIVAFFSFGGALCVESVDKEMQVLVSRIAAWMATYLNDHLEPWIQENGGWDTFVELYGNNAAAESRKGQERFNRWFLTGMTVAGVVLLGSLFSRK

On to `Cc1c(S(C)(=O)=O)c(-c2cc(F)cc(N3CCN(c4ccc(NS(=O)(=O)c5ccc(N[C@H](CCN6CCC(C(=O)O)CC6)CSc6ccccc6)c(S(=O)(=O)C(F)(F)F)c5)cc4)CC3)c2)c(-c2ccc(Cl)cc2)n1C(C)C` [Compound B4, (R)-1-(3-(4-(N-(4-(4-(3-(2-(4-chlorophenyl)-1-isopropyl-5-methyl-4-(methylsulfonyl)-1H-pyrrol-3-yl)-5-fluorophenyl)piperazin-1-yl)phenyl)sulfamoyl)-2-(trifluoromethylsulfonyl)phenylamino)-4-(phenylthio)butyl)piperidine-4-carboxylic acid], for which the “disruption of Bcl-xL:BIM vs Bcl-2:BIM complex” value in test [1] and in test [2] was “more potently disrupted Bcl-xL:BIM than Bcl-2:BIM complex” throughout. For the same compound, the “disruption of Bcl-xL:BIM complex compared with ABT-737” value in test [3] is “disrupted Bcl-xL:BIM complex more intensely than ABT-737”.
